# Patent US11192932B2, “Heparin-binding domain of IGFBP-2 in the treatment of metabolic disorders” (Amolyt Pharma, priority 2018, dated 2021)
# “Also recorded” adds a separate entry of the source.
# Experiments:
# mice = conditions: publication Xi, 2013; cited from earlier work
# 3T3-LI adipocytes = experiment: [3H]-2-deoxyglucose uptake by fully differentiated 3T3-LI adipocytes; assay type: cell-based, mouse; conditions: 3 μg/ml for 24 hours
# Protocol: The cells were exposed to the test compounds at a concentration of 3 μg/ml for 24 hours before testing for [^3H]-2-deoxyglucose uptake.
# 3T3-LI cells are a mouse fibroblast cell line which when cultured under specific conditions, differentiate into adipocytes.
# Differentiation of 3T3-LI cells into adipocytes was achieved using the following protocol. 3T3-L1 cells were seeded in 24-well plates and cultured in 3T3-L1 maintenance medium (DMEM containing 10% fetal bovine serum, 4 mM L-glutamine 1 mM, sodium pyruvate) until the cells were 100% confluent. The cells were then fed with 3T3-L1 maintenance medium and cultured for a further 48 h. To initiate differentiation into adipocytes, the medium was changed to Differentiation medium 1 (DMEM containing 10% fetal bovine serum, 4 mM L-glutamine, 1 mM sodium pyruvate, 0.5 mM IBMX, […]), and cultured for a further 2 days. The medium was then changed to Differentiation medium 2 (DMEM containing 10% fetal bovine serum, 4 mM L-glutamine, 1 mM sodium pyruvate, 1 mg/ml insulin), and cultured for a further 2 days. The medium was then changed to Adipocyte Maintenance medium (DMEM containing 10% fetal bovine serum, 4 mM L-glutamine, 1 mM sodium pyruvate), and cultured for a further 7 days. During this time, the medium was changed every other day. The now fully differentiated adipocytes were utilized for glucose uptake experiments (day 11 from initiation of differentiation). Stock solutions of the HBD1 peptides to be tested were prepared by dilution with 0.9% NaCl solution under sterile conditions in a laminar flow cabinet to a concentration of 1 mg/ml, based on net peptide content. The solutions were homogenized by gentle inversion. Test items were prepared from the stock solutions, and remaining stock solution was aliquoted and stored at −20° C. and used without repeated freeze-thaw cycles.
# Glucose uptake experiments were carried our using the following protocol. Prior to beginning the experiment, 100 ml of Krebs Ringer bicarbonate buffer (KRBB)(25 mM Hepes pH 7.4, 118 mM NaCl, 5 mM NaHCO3, 4.7 mM KCl, 1.2 mM KH2PO4, 1.2 mM MgSO4, 2.5 mM CaCl2, 0.2% BSA—Filtered using a 0.2 μm filter) and 100 ml of Incubation medium (DMEM containing 4 mM L-glutamine, 1 mM sodium pyruvate, 1% penicillin streptomycin, 0.2% BSA—Filtered using a 0.2 μm filter) were pre-warmed to 37° C., and 500 ml of KRBB was chilled on ice. Stock solutions of test compounds were diluted to 3 μg/ml final concentrations in pre-warmed Incubation medium and in pre-warmed KRBB. Insulin (positive control), previously diluted 1:1000 in sterile 0.9% NaCl, was further diluted in 10 ml of both medium and buffer to a final concentration of 1 nM. All traces of the medium were carefully removed from the cells using a fine tip. […]
# [1] = test system: C2C12 mouse skeletal muscle myotubes; experiment: 3H-2-deoxyglucose uptake by fully differentiated C2C12 myotubes; assay type: cell-based; conditions: C2C12 myotubes, SEQ ID NO: 73 alone or together with insulin (FIG. 8)
# Protocol: In particular: HBD1 SEQ ID NO: 73 (C18:0-HLGLEEPKK) at 0.8 μM, 1.5 μM, and 2.3 μM; or 1.5 μM SEQ ID NO: 73 (C18:0-HLGLEEPKK) for 2, 4, and 16 hours prior to testing glucose uptake.
# The studies were performed using cultured, fully differentiated C2C12 mouse skeletal muscle myotubes. The cells were prepared by growing C2C12 cells to confluent density in DMEM with 25 mM glucose and 10% fetal bovine serum in 24 well plates. At this time, the medium was changed to differentiation medium (DMEM with 25 mM glucose and 2% horse serum) for 6 days with medium changed every third day. The various treatments were diluted in serum-free medium and, after washing the cells with serum-free medium, were added to the cells and incubated for 2 hours or alternative times, depending on the treatment. At the end of incubation period, the media was removed and 1.0 ml of glucose-free Krebs ringer bicarbonate buffer (pH 7.4), containing the same treatments, was added and incubation continued for 10 minutes. At the end of the 10 min incubation period, ^3H-2-deoxyglucose ([…]) (specific activity=8 Ci/mmole) was added directly to all wells, and the incubation continued for an additional […]. The wells were then rinsed three times with ice cold phosphate buffered saline, the cells were extracted with 0.5 N NaOH, and the ^3H-2-deoxyglucose content of the cell lysate quantitated by scintillation counting.
# AMPK = AMPK phosphorylation (immunoblot anti-pAMPK T172) in C2C12 myotubes; assay type: cell-based, mouse; conditions: C2C12 myotubes treated with SEQ ID NO: 73 (FIG. 7)
# Protocol: In particular: HBD1 SEQ ID NO: 73 (C18:0-HLGLEEPKK). The AMPK pathway is both insulin and IGF1 independent, but acts ultimately to induce GLUT4 translocation to the cell membrane to facilitate the uptake and metabolism of glucose.
# For signaling studies the cells were prepared the same way except 6-well plates were used. After 6 days incubation in differentiating medium, the cells were washed with serum-free medium. The various treatments were then added in serum free medium containing 0.1% BSA. HBD1 peptides were added and incubated for 8 hours. When utilizing IGF-I, incubation was for 15 minutes after IGF-1 addition. Following incubation the cells were lysed in RIPA buffer and sonicated. The cell lysate was centrifuged and the supernatant analyzed for either Akt or AMPK by SDS PAGE using a 10% gel followed by immunoblotting with the appropriate antibody.
# To examine further the intracellular transduction pathways utilized by the HBD1 peptides, following treatment with HBD1 peptide SEQ ID NO: 73 (C18:0-HLGLEEPKK), cell lysate proteins, were separated by SDS PAGE and immunoblotted with anti-pAMPK T172.
Compound,body weight and fat accumulation (mice),glucose tolerance (mice),glucose uptake by 3T3-LI adipocytes (3T3-LI adipocytes),effect of blocker on SEQ ID NO: 73-stimulated glucose uptake [1],effect of blocker on SEQ ID NO: 73-induced AMPK phosphorylation (AMPK)
KHHLGLEEPKKLR [SEQ ID NO: 1],decrease body weight and fat accumulation,no effect,stimulated increased glucose uptake,,
HHLGLEEPKK [SEQ ID NO: 16],,,stimulated increased glucose uptake,,
HLGLEEPKK [SEQ ID NO: 10],,,stimulated increased glucose uptake,,
"c1cc(-c2cnn3cc(-c4ccc(OCCN5CCCCC5)cc4)cnc23)ccn1 [Compound C, reference compound]",,,,completely abolished; also recorded: prevented,completely abolished; also recorded: prevented
